Results taken from patent US9487510B2, “Substituted heterocyclic acetamides as kappa opioid receptor (KOR) agonists” (Dr. Reddy's Laboratories Ltd., priority 2012, dated 2016).
pEC50: −log10 of the molar value.

Biological target: human KOR receptor (Homo sapiens, UniProt P41145)
Experiment: IP-One HTRF assay, potency of KOR agonists, dose-response in transiently transfected COS-7 cells
Assay type: cell-based

Sequence of human KOR receptor (P41145 whole entry): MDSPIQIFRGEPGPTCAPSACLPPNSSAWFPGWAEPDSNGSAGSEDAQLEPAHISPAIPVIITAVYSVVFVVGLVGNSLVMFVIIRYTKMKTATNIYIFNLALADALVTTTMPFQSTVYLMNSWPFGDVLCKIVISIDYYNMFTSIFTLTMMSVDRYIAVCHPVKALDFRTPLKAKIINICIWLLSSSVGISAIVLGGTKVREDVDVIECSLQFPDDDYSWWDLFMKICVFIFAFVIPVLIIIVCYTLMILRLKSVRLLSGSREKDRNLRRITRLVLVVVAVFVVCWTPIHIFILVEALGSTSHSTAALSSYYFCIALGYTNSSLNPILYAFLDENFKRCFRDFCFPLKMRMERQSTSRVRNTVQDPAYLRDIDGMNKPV

CN(C(=O)Cc1ccc2sc(=O)[nH]c2c1)[C@H](CN1CC[C@H](O)C1)c1cccc(C(=O)O)c1 [Example 18, 3-((S)-2-((S)-3-hydroxypyrrolidin-1-yl)-1-(N-methyl-2-(2-oxo-2,3-dihydrobenzo[d]thiazol-5-yl)acetamido)ethyl)benzoic acid] and CN(C(=O)Cc1ccc2c(c1)NC(=O)C2)[C@H](CN1CC[C@H](O)C1)c1cccc(OCC(=O)O)c1 [Example 159, 2-(3-((S)-2-((S)-3-hydroxypyrrolidin-1-yl)-1-(N-methyl-2-(2-oxoindolin-6-yl)acetamido)ethyl)phenoxy)acetic acid] cannot be ordered by pEC50: no less than 7.30 for the first, no less than 7.30 for the second.

Cc1nnc(-c2cccc([C@@H](CN3CC[C@H](O)C3)N(C)C(=O)Cc3ccc4c(c3)NC(=O)C4)c2)s1 [Example 221, N-((S)-2-((S)-3-hydroxypyrrolidin-1-yl)-1-(3-(5-methyl-1,3,4-thiadiazol-2-yl)phenyl)ethyl)-N-methyl-2-(2-oxoindolin-6-yl)acetamide] and CN(C(=O)Cc1ccc2c(c1)NC(=O)C2)[C@H](CN1CC[C@H](O)C1)c1cccc(C#N)c1 [Example 156, N-((S)-1-(3-cyanophenyl)-2-((S)-3-hydroxypyrrolidin-1-yl)ethyl)-N-methyl-2-(2-oxoindolin-6-yl)acetamide] cannot be ordered by pEC50: no less than 7.30 for the first, no less than 7.30 for the second.

CN(C(=O)Cc1ccc2c(c1)NC(=O)CS2(=O)=O)[C@H](CN1CC[C@H](O)C1)c1cccc(F)c1 [Example 124, 2-(1,1-dioxido-3-oxo-3,4-dihydro-2H-benzo[b][1,4]thiazin-6-yl)-N-((S)-1-(3-fluorophenyl)-2-((S)-3-hydroxypyrrolidin-1-yl)ethyl)-N-methylacetamide] and C#Cc1cccc([C@@H](CN2CC[C@H](O)C2)N(C)C(=O)Cc2ccc3c(c2)NC(=O)CS3(=O)=O)c1 [Example 201, 2-(1,1-dioxido-3-oxo-3,4-dihydro-2H-benzo[b][1,4]thiazin-6-yl)-N-((S)-1-(3-ethynylphenyl)-2-((S)-3-hydroxypyrrolidin-1-yl)ethyl)-N-methylacetamide] cannot be ordered by pEC50: no less than 7.30 for the first, no less than 7.30 for the second.

First: CN(C(=O)Cc1ccc2c(c1)NC(=O)C2)[C@H](CN1CC[C@H](O)C1)c1cccc(-c2nccn2CC2CC2)c1 [Example 226, N-((S)-1-(3-(1-(cyclopropylmethyl)-1H-imidazol-2-yl)phenyl)-2-((S)-3-hydroxypyrrolidin-1-yl)ethyl)-N-methyl-2-(2-oxoindolin-6-yl)acetamide]
Second: CN(C(=O)Cc1ccc2c(c1)NC(=O)C2)[C@H](CN1CC[C@H](O)C1)c1cccc(OCc2nn[nH]n2)c1 [Example 112, N-((S)-1-(3-((2H-tetrazol-5-yl)methoxy)phenyl)-2-((S)-3-hydroxypyrrolidin-1-yl)ethyl)-N-methyl-2-(2-oxoindolin-6-yl)acetamide]
The pEC50 of the first is higher: no less than 7.30 for the first, 7.00 to 7.29 for the second. The first is the more potent here.

CN(C(=O)Cc1ccc2c(c1)NC(=O)CS2(=O)=O)[C@H](CN1CC[C@H](O)C1)c1cccc(OCC(=O)NS(C)(=O)=O)c1 [Example 174, 2-(1,1-dioxido-3-oxo-3,4-dihydro-2H-benzo[b][1,4]thiazin-6-yl)-N-((S)-2-((S)-3-hydroxypyrrolidin-1-yl)-1-(3-(2-(methylsulfonamido)-2-oxoethoxy)phenyl)ethyl)-N-methylacetamide] and COc1cccc([C@@H](CN2CC[C@H](O)C2)N(C)C(=O)Cc2ccc3c(c2)NC(=O)CS3(=O)=O)c1 [Example 126, 2-(1,1-dioxido-3-oxo-3,4-dihydro-2H-benzo[b][1,4]thiazin-6-yl)-N-((S)-2-((S)-3-hydroxypyrrolidin-1-yl)-1-(3-methoxyphenyl)ethyl)-N-methylacetamide] cannot be ordered by pEC50: no less than 7.30 for the first, no less than 7.30 for the second.

O=C(O)COc1cccc(C(CN2CC[C@H](O)C2)NC(=O)Cc2ccc3oc(=O)[nH]c3c2)c1 (mixture of isomers) [Example 101, (S)-2-(3-(2-(3-hydroxypyrrolidin-1-yl)-1-(2-(2-oxo-2,3-dihydrobenzo[d]oxazol-5-yl)acetamido)ethyl)phenoxy)acetic acid] and CC(C)(C)OC(=O)COc1cccc(C(CN2CC[C@H](O)C2)NC(=O)Cc2ccc3oc(=O)[nH]c3c2)c1 (mixture of isomers) [Example 74, (S)-tert-butyl 2-(3-(2-(3-hydroxypyrrolidin-1-yl)-1-(2-(2-oxo-2,3-dihydrobenzo[d]oxazol-5-yl)acetamido)ethyl)phenoxy)acetate] cannot be ordered by pEC50: no less than 7.30 for the first, no less than 7.30 for the second.

First: CN(C(=O)Cc1ccc2c(c1)NC(=O)C2)[C@H](CN1CC[C@H](F)C1)c1cccc(OCC(=O)NS(C)(=O)=O)c1 [Example 162, N-((S)-2-((S)-3-fluoropyrrolidin-1-yl)-1-(3-(2-(methylsulfonamido)-2-oxoethoxy)phenyl)ethyl)-N-methyl-2-(2-oxoindolin-6-yl)acetamide]
Second: CN(C(=O)Cc1ccc2c(c1)NC(=O)CS2(=O)=O)[C@H](CN1CC[C@H](O)C1)c1cccc(OC(F)F)c1 [Example 11, N-((S)-1-(3-(difluoromethoxy)phenyl)-2-((S)-3-hydroxypyrrolidin-1-yl)ethyl)-2-(1,1-dioxido-3-oxo-3,4-dihydro-2H-benzo[b][1,4]thiazin-6-yl)-N-methylacetamide]
The pEC50 of the first is higher: no less than 7.30 for the first, no more than 6.00 for the second. The first is the more potent here.

CN(C(=O)Cc1ccc2c(c1)NS(=O)(=O)C2)[C@H](CN1CC[C@H](O)C1)c1cc(F)cc(C#N)c1 [Example 199, N-((S)-1-(3-cyano-5-fluorophenyl)-2-((S)-3-hydroxypyrrolidin-1-yl)ethyl)-2-(2,2-dioxido-1,3-dihydrobenzo[c]isothiazol-6-yl)-N-methylacetamide] and CN(C(=O)Cc1ccc2c(c1)NS(=O)(=O)C2)[C@H](CN1CC[C@H](O)C1)c1cccc(C(=O)NCC(F)(F)F)c1 [Example 195, 3-((S)-1-(2-(2,2-dioxido-1,3-dihydrobenzo[c]isothiazol-6-yl)-N-methylacetamido)-2-((S)-3-hydroxypyrrolidin-1-yl)ethyl)-N-(2,2,2-trifluoroethyl)benzamide] cannot be ordered by pEC50: no less than 7.30 for the first, no less than 7.30 for the second.

First: CN(C(=O)Cc1ccc2ncc(=O)[nH]c2c1)[C@H](CN1CC[C@H](O)C1)c1cccc(-c2noc(C(F)(F)F)n2)c1 [Example 34, N-((S)-2-((S)-3-hydroxypyrrolidin-1-yl)-1-(3-(5-(trifluoromethyl)-1,2,4-oxadiazol-3-yl)phenyl)ethyl)-N-methyl-2-(3-oxo-3,4-dihydroquinoxalin-6-yl)acetamide]
Second: CC(C)N(C(=O)Cc1ccc2c(c1)NC(=O)CS2(=O)=O)[C@H](CN1CC[C@H](O)C1)c1cccc(OC(F)(F)F)c1 [Example 138, 2-(1,1-dioxido-3-oxo-3,4-dihydro-2H-benzo[b][1,4]thiazin-6-yl)-N-((S)-2-((S)-3-hydroxypyrrolidin-1-yl)-1-(3-(trifluoromethoxy)phenyl)ethyl)-N-isopropylacetamide]
The pEC50 of the first is higher: no less than 7.30 for the first, 7.00 to 7.29 for the second.

Going from O=C(Cc1ccc2c(c1)NC(=O)C2(F)F)N[C@H](CN1CC[C@H](O)C1)c1ccccc1 [Example 13, 2-(3,3-difluoro-2-oxoindolin-6-yl)-N-((S)-2-((S)-3-hydroxypyrrolidin-1-yl)-1-phenylethyl)acetamide] to CN(C(=O)Cc1ccc2c(c1)NC(=O)CS2(=O)=O)[C@H](CN1CCC(O)C1)c1ccccc1 (stereo in doubt) [Example 120, 2-(1,1-dioxido-3-oxo-3,4-dihydro-2H-benzo[b][1,4]thiazin-6-yl)-N-((S)-2-((S)-3-hydroxypyrrolidin-1-yl)-1-phenylethyl)-N-methylacetamide], the pEC50 rises from no more than 6.00 to no less than 7.30. The second is the more potent here.
